We go through 21 compounds from ChEMBL document CHEMBL3102753, “7-Azaindole-1-carboxamides as a new class of PARP-1 inhibitors” (Bioorg Med Chem, 2014).

pEC50, pIC50: −log10 of the molar value. A value given as a limit tells only on which side of the number the result lay.

Series [1] is described as follows: Antiproliferative activity against BRCA2 gene mutated human Capan1 cells after 72 hrs by cell counting. The note with it: CAPAN-1, 72 h.
Series [2] addresses T1, Poly [ADP-ribose] polymerase 1 (Homo sapiens, UniProt P09874). The series can be described thus: Inhibition of recombinant human GST-fused PARP-1 expressed in Escherichia coli after 30 mins by fluorescence assay.
The next series relates to HCC1937. The series can be described thus: Antiproliferative activity against BRCA1 gene mutated human HCC1937 cells after 72 hrs by SRB assay. Type of series: functional, cell-based. Background: Sulforhodamine B stains cellular protein and so reports cell mass.
Series [3] can be described thus: Antiproliferative activity against BRCA2 gene mutated human Capan1 cells after 72 hrs by SRB assay. The note with it: capan-1. Type of series: functional, cell-based.
The test system of series [4] is A2780. The series can be described thus: Antiproliferative activity against human A2780 cells after 72 hrs by SRB assay. In kind it is functional, cell-based. To be noted: A2780, 72 h.
The test system of series [5] is Mus musculus. The series can be described thus: Toxicity in human MX1 cells harboring BRCA1 deletion and BRCA2 mutant xenografted SCID mouse assessed as reduction of body weight at 100 mg/kg, ip administered every 2 days for 2 weeks measured on day 38 relative to control. In kind it is organism-based. Further details: dose 100 mg/kg, route intraperitoneal; scale not given: the % may be the effect or the level left. The note with it: in vivo. On the technique in general: In xenograft studies the graft and the host belong to different species.

Series [6] has as its system A2780. The series can be described thus: Resistant factor, ratio of IC50 for human A2780/DX cells to IC50 for human A2780 cells. Type of series: functional.
The target in series [7] is T1, Poly [ADP-ribose] polymerase 1. In words: Inhibition of PARP-1 in human HeLa cells assessed as decrease of H2O2-induced PARylation after 3 hrs by fluorescence assay. In kind it is cell-based.
The test system of series [8] is MX1. In words: Antitumor activity against human MX1 cells harboring BRCA1 deletion and BRCA2 mutant xenografted in SCID mouse assessed as reduction of tumor volume at 100 mg/kg, ip administered every 2 days for 2 weeks measured on day 38 relative to control. Type of series: functional. On the set-up: scale not given: the % may be the effect or the level left. The note with it: route intraperitoneal.

In series [9] the test system is Mus musculus. In words: Toxicity in human MX1 cells harboring BRCA1 deletion and BRCA2 mutant xenografted SCID mouse assessed as mortality at 100 mg/kg, ip administered every 2 days for 2 weeks measured on day 38 relative to control. In kind it is organism-based. On the set-up: dose 100 mg/kg, route intraperitoneal. The note with it: in vivo.
Series [10] in a line: Antiproliferative activity against human A2780/DX cells after 72 hrs by SRB assay. Type of series: functional, cell-based.
The subject of series [11] is Mus musculus. In words: Toxicity in human MX1 cells harboring BRCA1 deletion and BRCA2 mutant xenografted SCID mouse assessed as mortality at 167 mg/kg, ip administered every 2 days for 2 weeks measured on day 38 relative to control. Type of series: organism-based. Further details: dose 167 mg/kg, route intraperitoneal. To be noted: in vivo.
Series [12] relates to MX1. The series can be described thus: Antitumor activity against human MX1 cells harboring BRCA1 deletion and BRCA2 mutant xenografted in SCID mouse assessed as reduction of tumor volume at 167 mg/kg, ip administered every 2 days for 2 weeks measured on day 38 relative to control. Type of series: functional. On the set-up: scale not given: the % may be the effect or the level left. The note with it: route intraperitoneal.

The test system of series [13] is Mus musculus. In words: Toxicity in human MX1 cells harboring BRCA1 deletion and BRCA2 mutant xenografted SCID mouse assessed as reduction of body weight at 167 mg/kg, ip administered every 2 days for 2 weeks measured on day 38 relative to control. Further details: dose 167 mg/kg, route intraperitoneal; scale not given: the % may be the effect or the level left. Type of series: organism-based. The note with it: in vivo.

The mark [14] stands for this setting: Homo sapiens, HCC1937, 72 h, read-out: IC50.

T1 sequence (P09874 whole entry, the tested form may be a part): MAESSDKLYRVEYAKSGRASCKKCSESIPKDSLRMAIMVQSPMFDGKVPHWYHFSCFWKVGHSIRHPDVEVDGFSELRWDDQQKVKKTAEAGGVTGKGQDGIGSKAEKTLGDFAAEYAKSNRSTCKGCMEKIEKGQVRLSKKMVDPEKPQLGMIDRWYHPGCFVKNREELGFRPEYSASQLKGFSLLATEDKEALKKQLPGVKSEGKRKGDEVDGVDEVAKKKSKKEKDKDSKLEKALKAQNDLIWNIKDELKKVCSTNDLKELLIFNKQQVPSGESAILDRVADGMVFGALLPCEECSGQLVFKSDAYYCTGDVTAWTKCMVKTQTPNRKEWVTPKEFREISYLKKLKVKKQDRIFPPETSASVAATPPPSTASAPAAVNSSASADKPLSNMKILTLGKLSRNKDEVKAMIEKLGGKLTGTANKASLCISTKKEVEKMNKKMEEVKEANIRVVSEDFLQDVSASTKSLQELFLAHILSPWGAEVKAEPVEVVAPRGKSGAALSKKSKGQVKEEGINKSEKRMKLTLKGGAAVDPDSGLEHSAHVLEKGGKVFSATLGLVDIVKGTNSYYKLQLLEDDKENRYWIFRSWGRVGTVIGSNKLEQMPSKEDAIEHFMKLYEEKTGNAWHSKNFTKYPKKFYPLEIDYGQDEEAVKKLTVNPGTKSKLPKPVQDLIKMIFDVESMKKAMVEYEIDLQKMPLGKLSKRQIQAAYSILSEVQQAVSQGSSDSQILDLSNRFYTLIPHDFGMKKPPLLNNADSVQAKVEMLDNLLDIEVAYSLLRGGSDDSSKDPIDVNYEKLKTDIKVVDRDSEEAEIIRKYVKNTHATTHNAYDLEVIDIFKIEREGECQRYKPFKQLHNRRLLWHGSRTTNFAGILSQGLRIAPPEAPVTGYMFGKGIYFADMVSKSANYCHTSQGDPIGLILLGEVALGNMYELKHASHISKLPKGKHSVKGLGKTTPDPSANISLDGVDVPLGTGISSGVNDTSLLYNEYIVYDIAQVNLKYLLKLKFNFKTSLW

For the compound `CN(C)Cc1ccc(-c2ccc3ccn(C(N)=O)c3n2)cc1`, the pIC50 – broadly, the negative decadic logarithm of the IC50, by convention in mol/L – in series [1] is 4.71; in series [2], 6.20; with HCC1937 (setting [14]), 4.87.
Regarding `NC(=O)n1ccc2ccc(-c3ccc(F)c(C(=O)N4CCN(C(=O)C5CC5)CC4)c3)nc21`, the negative logarithm of the IC50 (pIC50) in [2] is 5.95.
As to `NC(=O)n1ccc2ccc(-c3ccc(CN4CCCC4)cc3)nc21`, the results for the negative logarithm of the IC50 (pIC50) (in series [1]; in [2]; in the series on HCC1937 (setting [14])) were 4.66, 6.55 and 4.82, respectively.
For `C[C@]1(c2nc3c(C(N)=O)cccc3[nH]2)CCCN1` [VELIPARIB], the pIC50 in series [3] was 4.40; in the series with HCC1937 (hcc1937, read-out: IC50), 4.01.
In the case of `NC(=O)n1ccc2ccc(-c3ccc(F)cc3)nc21`, the figures for the pIC50 (in [1]; in series [2]; in the series on HCC1937 (setting [14])) were 4.21, 6.57 and under 3.70, respectively.
For `NC(=O)n1ccc2ccc(-c3ccc(C(=O)N4CCCCC4)cc3)nc21`, the pIC50 in series [1] is 4.61; in [2], 5.54; with HCC1937 (setting [14]), 4.14.
The matching figures for `CN1CCN(c2ccc3ccn(C(N)=O)c3n2)CC1`: 3.86, 6.11 and 3.96.
In the same order, the values of `CN(C)c1ccc(-c2ccc3ccn(C(N)=O)c3n2)cc1` are under 3.70, 6.06 and under 3.70.
On to `NC(=O)n1ccc2cccnc21`, for which the pIC50 in [1] is under 3.70; in [2], 5.60; in the series on HCC1937 (setting [14]) it was under 3.70.
As to `CN1CCN(Cc2ccc(-c3ccc4ccn(C(N)=O)c4n3)cc2)CC1`, the figures for the negative logarithm of the IC50 (pIC50) (in [1]; in series [2]; in the series with HCC1937 (setting [14])) were 4.26, 5.81 and 4.38, respectively.
Take `NC(=O)n1ccc2ccc(-c3ccc(CN4CCCCC4)cc3)nc21`: the negative-log IC50 (pIC50) in the series on A2780 [4] was 5.54; in series [1] it was 4.66; in series [10], 4.95; in series [2], 7.15; in the series on HCC1937 (setting [14]), 4.71. For the same compound, the figures for the Activity with Mus musculus [5], in the series on MX1 [8] and with Mus musculus [9] were 1%, 36% and “Non-toxic”, respectively. Further, the “Ratio IC50” value with A2780 [6] is listed as 3.9. The negative logarithm of the EC50 (pEC50) (commonly −log10 of the EC50, conventionally taken in molar units) in series [7] was 6.40.
As to `NC(=O)Cn1ccc2ccc(-c3ccc(CN4CCCC4)cc3)nc21`, the negative-log IC50 (pIC50) is 3.74 in series [1], under 5.30 in [2] and 3.74 in the series on HCC1937 (setting [14]).
Take `NC(=O)n1ccc2ccc(N3CCCCC3)nc21`: the pIC50 in [2] was 5.52.
Take `NC(=O)n1ccc2ccc(-c3ccccc3F)nc21`: the negative-log IC50 (pIC50) in series [2] is 5.52.
In the case of `COc1ccc(-c2ccc3ccn(C(N)=O)c3n2)cc1`, the negative logarithm of the IC50 (pIC50) in series [1] is 3.79; in [2] it was 5.42; with HCC1937 (setting [14]), under 3.70.
`NC(=O)n1ccc2ccc(-c3ccccc3)nc21`: the negative-log IC50 (pIC50) is under 3.70 in [1], 6.57 in [2] and under 3.70 with HCC1937 (setting [14]).
Turning to `O=C(c1cc(Cc2n[nH]c(=O)c3ccccc23)ccc1F)N1CCN(C(=O)C2CC2)CC1` [OLAPARIB], the negative-log IC50 (pIC50) with A2780 [4] was 6.00; in [1], 5.20; in [10], 4.38; in the series with HCC1937 (Homo sapiens, HCC1937, 72 h), 4.99. Moreover, the results for the Activity entry in the series with Mus musculus [11], in the series with MX1 [12] and in the series with Mus musculus [13] were “Non-toxic”, 35% and 0%, respectively.
`NC(=O)n1ccc2ccc(N3CCCC3)nc21`: the values for the pIC50 (in series [1]; in [2]; in the series with HCC1937 (setting [14])) were 4.08, 6.66 and under 3.70, respectively.
The matching figures for `NC(=O)n1ccc2ccc(-c3ccc[nH]3)nc21`: 4.06, 6.03 and 4.21.
The matching figures for `NC(=O)n1ccc2ccc(-c3ccc(-c4ccccc4)cc3)nc21`: 4.09, under 5.30 and under 3.70.
Turning to `NC(=O)n1ccc2ccc(-c3ccc(CN4CCOCC4)cc3)nc21`, the results for the negative-log IC50 (pIC50) (in [1]; in [2]; in the series on HCC1937 (setting [14])) were 4.80, 5.68 and 4.76, respectively.
